In assay [1] the target is T1, NBD1 (Homo sapiens, UniProt P13569).
T1 construct: Purified recombinant NBD1 was produced using previously described methods; made in house
Nature of the assay: Aggregation analysis using differential static light scattering (DSLS), thermal stability of NBD1 (ΔTagg). Format: binding. The settings on record: ΔTagg versus DMSO control, NBD1 0.2 mg/ml. In short, it runs like this:
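Thermal aggregation of purified NBD1 was followed by static light scattering during a 1° C./min ramp to 70° C. Protein was at 0.2 mg/ml with 2 mM ATP at pH7.6. Each compound's Tagg was referenced to DMSO controls.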

Assay [2] has as its target T2, CFTR (Homo sapiens, UniProt P13569, DEL508-508).
T2 construct: Primary human bronchial epithelial cells from a ΔF508 homozygous CF donor; host or cells: primary human bronchial epithelial cells (CF-HBE), ΔF508 homozygous donor
Nature of the assay: TECC24 AUC fold over DMSO @10 μM, CFTR-mediated transepithelial chloride transport in CF-HBE cells. Type of assay: cell-based. The conditions noted are these: test agent AUC divided by DMSO vehicle AUC, primary CF-HBE cells, ΔF508 homozygous donor, 48 hours incubation. In short, it runs like this:
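Primary ΔF508-homozygous CF bronchial epithelial cells on inserts were incubated 48 h at 36.5 °C with compound in IL-13-containing medium. VT and TEER were then recorded in current-clamp mode (pH 7.4 HEPES bath) with benzamil 10 μM, forskolin 10 μM, then CFTR inhibitor-172 20 μM. The IEQ AUC between forskolin and inhibitor was divided by vehicle AUC.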

T1 sequence (P13569 423-646 limits assumed): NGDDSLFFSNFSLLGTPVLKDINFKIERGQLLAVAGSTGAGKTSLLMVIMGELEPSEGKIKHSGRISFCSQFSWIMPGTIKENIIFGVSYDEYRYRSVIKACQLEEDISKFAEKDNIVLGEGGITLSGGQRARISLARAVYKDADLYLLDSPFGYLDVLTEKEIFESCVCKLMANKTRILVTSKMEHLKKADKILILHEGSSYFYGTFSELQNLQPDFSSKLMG
T2 sequence (P13569 with tags, fused parts or gaps DEL508-508): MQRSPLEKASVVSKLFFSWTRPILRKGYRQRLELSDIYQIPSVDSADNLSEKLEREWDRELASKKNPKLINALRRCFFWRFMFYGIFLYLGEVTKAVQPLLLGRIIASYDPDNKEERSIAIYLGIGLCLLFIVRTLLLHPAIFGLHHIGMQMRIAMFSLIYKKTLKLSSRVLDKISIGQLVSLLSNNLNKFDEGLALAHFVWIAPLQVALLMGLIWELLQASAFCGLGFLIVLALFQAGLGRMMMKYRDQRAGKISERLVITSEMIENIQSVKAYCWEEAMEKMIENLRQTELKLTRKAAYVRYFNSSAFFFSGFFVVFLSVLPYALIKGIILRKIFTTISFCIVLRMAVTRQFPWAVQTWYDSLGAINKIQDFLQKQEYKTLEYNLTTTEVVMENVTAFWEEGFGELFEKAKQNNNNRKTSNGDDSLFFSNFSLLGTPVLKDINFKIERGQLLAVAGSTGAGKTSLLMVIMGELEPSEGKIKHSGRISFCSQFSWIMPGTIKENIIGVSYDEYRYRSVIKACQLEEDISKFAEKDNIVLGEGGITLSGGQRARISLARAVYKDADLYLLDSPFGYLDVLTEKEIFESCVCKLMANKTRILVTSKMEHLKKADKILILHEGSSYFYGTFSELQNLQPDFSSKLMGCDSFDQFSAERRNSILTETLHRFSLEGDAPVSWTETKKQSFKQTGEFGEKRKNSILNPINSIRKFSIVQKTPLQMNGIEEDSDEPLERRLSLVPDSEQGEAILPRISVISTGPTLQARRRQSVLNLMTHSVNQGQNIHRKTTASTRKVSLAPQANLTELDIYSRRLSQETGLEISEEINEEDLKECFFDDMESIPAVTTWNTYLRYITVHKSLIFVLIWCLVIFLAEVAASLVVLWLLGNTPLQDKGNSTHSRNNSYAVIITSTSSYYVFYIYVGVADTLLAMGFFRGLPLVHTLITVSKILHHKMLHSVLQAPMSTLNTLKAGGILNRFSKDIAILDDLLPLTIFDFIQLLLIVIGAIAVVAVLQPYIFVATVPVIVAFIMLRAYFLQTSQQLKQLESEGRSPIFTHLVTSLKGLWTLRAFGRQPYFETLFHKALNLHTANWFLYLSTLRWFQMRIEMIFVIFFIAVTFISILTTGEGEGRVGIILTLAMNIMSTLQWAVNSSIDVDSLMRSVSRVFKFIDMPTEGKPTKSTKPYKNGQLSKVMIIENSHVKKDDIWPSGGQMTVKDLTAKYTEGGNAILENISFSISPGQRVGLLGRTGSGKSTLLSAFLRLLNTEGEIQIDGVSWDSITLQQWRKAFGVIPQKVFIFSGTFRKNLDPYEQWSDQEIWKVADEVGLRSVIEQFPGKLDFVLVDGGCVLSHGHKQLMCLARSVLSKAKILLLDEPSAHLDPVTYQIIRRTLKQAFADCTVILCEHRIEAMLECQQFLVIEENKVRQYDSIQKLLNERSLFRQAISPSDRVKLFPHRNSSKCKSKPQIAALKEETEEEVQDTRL

Regarding `Cn1nc2nc1-c1cc(ccc1F)Oc1c(F)cc3[nH]ccc3c1CCS(=O)(=O)CC(C)(C)CCCC2(C#N)c1cccc(CC2(C(=O)O)CC2)c1` (single isomer, unassigned) [Compound 122B, 1-[[3-(6-cyano-22,28-difluoro-3,10,10-trimethyl-12,12-dioxo-24-oxa-12λ6-thia-3,4,19,30-tetrazapentacyclo[23.3.1.12,5.015,23.016,20]triaconta-1(29),2(30),4,15,17,20,22,25,27-nonaen-6-yl)phenyl]methyl]cyclopropanecarboxylic Acid], the “DSLS 3D (100 μM ΔT)” value in assay [1] was “A (an ΔTagg value less than or equal to 5 °C is marked “A”)”. The “TECC (AUC, 10 μM)” value in assay [2] is listed as “A (a TECC value less than 12 is marked “A”)”.
For the molecule `Cn1nc2nc1-c1cc(ccc1F)Oc1c(F)cc3[nH]ccc3c1CCS(=O)(=O)CC(C)(C)OCCC2(C#N)c1cccc(CC2(C(=O)O)CC2)c1` (single isomer, unassigned) [Compound 123A, 1-[[3-(6-cyano-22,28-difluoro-3,10,10-trimethyl-12,12-dioxo-9,24-dioxa-12λ6-thia-3,4,19,30-tetrazapentacyclo[23.3.1.12,5.015,23.016,20]triaconta-1(29),2(30),4,15,17,20,22,25,27-nonaen-6-yl)phenyl]methyl]cyclopropanecarboxylic Acid], in assay [1], the “DSLS 3D (100 μM ΔT)” value is “A (an ΔTagg value less than or equal to 5 °C is marked “A”)”. Further, the “TECC (AUC, 10 μM)” value in assay [2] was “A (a TECC value less than 12 is marked “A”)”.
With `Cn1nc2nc1-c1cc(ccc1F)Oc1c(F)cc3[nH]ccc3c1CCS(=O)(=O)CC(C)(C)OCCC2(C#N)c1cccc(CC2(C(=O)O)CC2)c1` (single isomer, unassigned) [Compound 123B, 1-[[3-(6-cyano-22,28-difluoro-3,10,10-trimethyl-12,12-dioxo-9,24-dioxa-12λ6-thia-3,4,19,30-tetrazapentacyclo[23.3.1.12,5.015,23.016,20]triaconta-1(29),2(30),4,15,17,20,22,25,27-nonaen-6-yl)phenyl]methyl]cyclopropanecarboxylic Acid], the “DSLS 3D (100 μM ΔT)” value in assay [1] is “C (a value greater than 10 °C and less than or equal to 25 °C is marked “C”)”. In assay [2], the “TECC (AUC, 10 μM)” value is given as “A (a TECC value less than 12 is marked “A”)”.
For the molecule `CC(Cc1cccc(C2(C#N)CCCC(C)(C)CS(=O)(=O)CCc3c(c(F)cc4[nH]ccc34)Oc3ccc(F)c(c3)-c3nc2nn3C)c1F)C(=O)O` (single isomer, unassigned) [Compound 124A, 3-[3-(6-cyano-22,28-difluoro-3,10,10-trimethyl-12,12-dioxo-24-oxa-12λ6-thia-3,4,19,30-tetrazapentacyclo-[23.3.1.12,5.015,23.016,20]triaconta-1(29),2(30),4,15,17,20,22,25,27-nonaen-6-yl)-2-fluoro-phenyl]-2-methyl-propanoic Acid], the “DSLS 3D (100 μM ΔT)” value in assay [1] was “C (a value greater than 10 °C and less than or equal to 25 °C is marked “C”)”. Besides, in assay [2], the “TECC (AUC, 10 μM)” value is “A (a TECC value less than 12 is marked “A”)”.
In the case of `CC(Cc1cccc(C2(C#N)CCCC(C)(C)CS(=O)(=O)CCc3c(c(F)cc4[nH]ccc34)Oc3ccc(F)c(c3)-c3nc2nn3C)c1F)C(=O)O` (single isomer, unassigned) [Compound 124B, 3-[3-(6-cyano-22,28-difluoro-3,10,10-trimethyl-12,12-dioxo-24-oxa-12λ6-thia-3,4,19,30-tetrazapentacyclo-[23.3.1.12,5.015,23.016,20]triaconta-1(29),2(30),4,15,17,20,22,25,27-nonaen-6-yl)-2-fluoro-phenyl]-2-methyl-propanoic Acid], in assay [1], the “DSLS 3D (100 μM ΔT)” value is “B (a value above 5 °C and less than or equal to 10 °C is marked “B”)”. The “TECC (AUC, 10 μM)” value in assay [2] is on record as “A (a TECC value less than 12 is marked “A”)”.
For the molecule `C[C@@H](Cc1cccc(C2(C)CCCC(C)(C)CS(=O)(=O)CCc3c(c(F)cc4[nH]ccc34)C(=O)c3ccc(F)c(c3)-c3nc2nn3C)c1)C(=O)O` (single isomer, unassigned) [Compound 125A], in assay [1], the “DSLS 3D (100 μM ΔT)” value is “B (a value above 5 °C and less than or equal to 10 °C is marked “B”)”. In assay [2], the “TECC (AUC, 10 μM)” value is reported as “B (a value between 12-20 is marked “B”)”.
On to `C[C@@H](Cc1cccc(C2(C)CCCC(C)(C)CS(=O)(=O)CCc3c(c(F)cc4[nH]ccc34)C(=O)c3ccc(F)c(c3)-c3nc2nn3C)c1)C(=O)O` (single isomer, unassigned) [Compound 125B], for which the “DSLS 3D (100 μM ΔT)” value in assay [1] is “C (a value greater than 10 °C and less than or equal to 25 °C is marked “C”)”. Further, the “TECC (AUC, 10 μM)” value in assay [2] was “B (a value between 12-20 is marked “B”)”.
Regarding `C[C@H](Cc1cccc(C2(C)CCCC(C)(C)CS(=O)(=O)CCc3c(c(F)cc4[nH]ccc34)C(=O)c3ccc(F)c(c3)-c3nc2nn3C)c1)C(=O)O` (single isomer, unassigned) [Compound 126A], the “DSLS 3D (100 μM ΔT)” value in assay [1] was “C (a value greater than 10 °C and less than or equal to 25 °C is marked “C”)”. Besides, the “TECC (AUC, 10 μM)” value in assay [2] is on record as “B (a value between 12-20 is marked “B”)”.
In the case of `C[C@H](Cc1cccc(C2(C)CCCC(C)(C)CS(=O)(=O)CCc3c(c(F)cc4[nH]ccc34)C(=O)c3ccc(F)c(c3)-c3nc2nn3C)c1)C(=O)O` (single isomer, unassigned) [Compound 126B], the “DSLS 3D (100 μM ΔT)” value in assay [1] is “B (a value above 5 °C and less than or equal to 10 °C is marked “B”)”. In addition, the “TECC (AUC, 10 μM)” value in assay [2] is recorded as “B (a value between 12-20 is marked “B”)”.
With `COc1ccc2cc1-c1nc(nn1C)C(C)(c1cccc(C[C@@H](C)C(=O)O)c1)CCCC(C)(C)CS(=O)(=O)CCc1c(c(F)cc3[nH]ccc13)C2=O` (single isomer, unassigned) [Compound 127A], the “DSLS 3D (100 μM ΔT)” value in assay [1] is “B (a value above 5 °C and less than or equal to 10 °C is marked “B”)”. For the same molecule, the “TECC (AUC, 10 μM)” value in assay [2] is “A (a TECC value less than 12 is marked “A”)”.
On to `COc1ccc2cc1-c1nc(nn1C)C(C)(c1cccc(C[C@@H](C)C(=O)O)c1)CCCC(C)(C)CS(=O)(=O)CCc1c(c(F)cc3[nH]ccc13)C2=O` (single isomer, unassigned) [Compound 127B], for which the “DSLS 3D (100 μM ΔT)” value in assay [1] was “A (an ΔTagg value less than or equal to 5 °C is marked “A”)”. For the same molecule, in assay [2], the “TECC (AUC, 10 μM)” value is listed as “A (a TECC value less than 12 is marked “A”)”.
As for `C[C@@H](Cc1cccc(C2(C)CCCC(C)(C)CS(=O)(=O)CCc3c(c(F)cc4[nH]ccc34)Oc3ccc(F)c(c3)-c3nc2c[nH]3)c1)C(=O)O` (single isomer, unassigned) [Compound 129A], the “DSLS 3D (100 μM ΔT)” value in assay [1] was “A (an ΔTagg value less than or equal to 5 °C is marked “A”)”. Moreover, the “TECC (AUC, 10 μM)” value in assay [2] was “A (a TECC value less than 12 is marked “A”)”.
With `C[C@@H](Cc1cccc(C2(C)CCCC(C)(C)CS(=O)(=O)CCc3c(c(F)cc4[nH]ccc34)Oc3ccc(F)c(c3)-c3nc2c[nH]3)c1)C(=O)O` (single isomer, unassigned) [Compound 129B], the “DSLS 3D (100 μM ΔT)” value in assay [1] was “C (a value greater than 10 °C and less than or equal to 25 °C is marked “C”)”. For the same molecule, the “TECC (AUC, 10 μM)” value in assay [2] is reported as “A (a TECC value less than 12 is marked “A”)”.
Consider `[2H]C([2H])([2H])C1(c2cccc(C[C@H](C)C(=O)O)c2)CCCC2(COC2)CS(=O)(=O)CCc2c(c(F)cc3[nH]ccc23)Oc2ccc(F)c(c2)-c2nc1nn2C` (single isomer, unassigned) [Compound 130A], for which the “DSLS 3D (100 μM ΔT)” value in assay [1] is “C (a value greater than 10 °C and less than or equal to 25 °C is marked “C”)”. In assay [2], the “TECC (AUC, 10 μM)” value was “C (a value between 20 and 80 is marked “C”)”.
For the molecule `[2H]C([2H])([2H])C1(c2cccc(C[C@H](C)C(=O)O)c2)CCCC2(COC2)CS(=O)(=O)CCc2c(c(F)cc3[nH]ccc23)Oc2ccc(F)c(c2)-c2nc1nn2C` (single isomer, unassigned) [Compound 130B], in assay [1], the “DSLS 3D (100 μM ΔT)” value is “C (a value greater than 10 °C and less than or equal to 25 °C is marked “C”)”. Moreover, the “TECC (AUC, 10 μM)” value in assay [2] was “C (a value between 20 and 80 is marked “C”)”.
In the case of `CC(Cc1cccc(C2(C)CCCC(C)(C)CS(=O)(=O)CCc3c(c(F)cc4[nH]ccc34)Cn3cc(ccc3=O)-c3nc2nn3C)c1)C(=O)O` (single isomer, unassigned) [Compound 132A, 3-[3-(22-fluoro-3,6,10,10-tetramethyl-12,12,26-trioxo-12λ6-thia-3,4,19,25,30-pentazapentacyclo-[23.3.1.12,5.015,23.016,20]triaconta-1(29),2(30),4,15,17,20,22,27-octaen-6-yl)phenyl]-2-methyl-propanoic Acid], the “DSLS 3D (100 μM ΔT)” value in assay [1] is “A (an ΔTagg value less than or equal to 5 °C is marked “A”)”. In addition, the “TECC (AUC, 10 μM)” value in assay [2] is given as “A (a TECC value less than 12 is marked “A”)”.
As to `CC(Cc1cccc(C2(C)CCCC(C)(C)CS(=O)(=O)CCc3c(c(F)cc4[nH]ccc34)Cn3cc(ccc3=O)-c3nc2nn3C)c1)C(=O)O` (single isomer, unassigned) [Compound 132B, 3-[3-(22-fluoro-3,6,10,10-tetramethyl-12,12,26-trioxo-12λ6-thia-3,4,19,25,30-pentazapentacyclo-[23.3.1.12,5.015,23.016,20]triaconta-1(29),2(30),4,15,17,20,22,27-octaen-6-yl)phenyl]-2-methyl-propanoic Acid], in assay [1], the “DSLS 3D (100 μM ΔT)” value is “C (a value greater than 10 °C and less than or equal to 25 °C is marked “C”)”. In assay [2], the “TECC (AUC, 10 μM)” value is listed as “A (a TECC value less than 12 is marked “A”)”.
